Measurements reported in patent US5886165A, “Mixed backbone antisense oligonucleotides containing 2'-5'-ribonucleotide- and 3'-5'-deoxyribonucleotides segments” (Hybridon, Inc., priority 1996, dated 1999).
[25] = 2'-5' internucleotide linkage (phosphodiester)

Legend:
[1] = test system: DNA target strand SEQ ID NO 10 (25 base sequence from the initiation codon region of the HIV-1 gag mRNA); assay: Thermal melting study, duplex with DNA target strand; type: binding; details: for Tm DNA: duplex with DNA SEQ ID NO 10, 10 mM disodium hydrogen phosphate pH 7.5, 100 mM NaCl, 2.0 μM total strands; for Tm lower than duplex of control phosphorothioate oligonucleotide SEQ ID NO 8, DNA target: vs SEQ ID NO 8, DNA SEQ ID NO 10
Experimental: (§1) Thermal denaturation studies were carried out by mixing MBOs with the DNA or RNA target strands in equimolar ratios in 10 mM disodium hydrogen phosphate, pH 7.5±0.1, 100 mM sodium chloride buffer, heated to 95° C. for 10 min, and allowed to come to room temperature slowly before being stored at 4° C. overnight. The final total concentration of the oligonucleotide strands was 2.0 μM. Spectrophotometric measurements were performed at 260 nm using 1 cm path length quartz cuvettes at a heating rate of 0.5° C./min on a Perkin-Elmer (Norwalk, Conn.) Lambda 2 Specotrometer attached to a thermal controller and a personal computer. Melting temperatures (Tm) taken as the temperature of half-dissociation and were obtained from first derivative plots. Precision in Tm values estimated from variance in two or three repeated experiments was ±0.5° C.

[2] = test system: RNA target strand SEQ ID NO 9 (25 base sequence from the initiation codon region of the HIV-1 gag mRNA); assay: Thermal melting study, duplex with RNA target strand; type: binding; details: for Tm RNA: duplex with RNA SEQ ID NO 9, 10 mM disodium hydrogen phosphate pH 7.5, 100 mM NaCl, 2.0 μM total strands; for Tm lower than duplex of control phosphorothioate oligonucleotide SEQ ID NO 8, RNA target: vs SEQ ID NO 8, RNA SEQ ID NO 9
Experimental: as §1

HIV-1 = assay: Inhibition of HIV-1 replication in cell culture (MT-4 cells, MTT); type: cell-based; details: for IC50: 6 days
Experimental: Oligonucleotides according to the invention were studied for their ability to inhibit HIV-1. HIV-1 inhibition assay was carried out as described previously. Kandimalla et al., Nucleic Acids Res., supra). Briefly, serial dilutions of antisense oligonucleotides were prepared in 50 μl volumes of complete medium (RAMI-1640, 10% fetal bovine serum, 2 mM L-glutamine, 100 U/ml penicillin, […] streptomycin) in triplicate in 96-well plates. Virus diluted to contain a 90% CP dose of virus in 50 μl was added, followed by 100 μl 4×10^5 /ml MT-4 cells in complete medium. The plates were incubated at 37° C. in 5% CO2 for 6 days. MTT dye was added and quantified at A540 and A690 as described. The percent inhibition was calculated by the formula (experimental--virus control)/(medium control--virus control)×100.

Spleen cells (CD1 mouse) = assay: In vitro cell proliferation assay ([3H]thymidine); type: cell-based; details: at 10 μg/ml, 48 hrs
Experimental: Cell proliferation assays were carried out as described earlier (Zhao et al., Biochem. Pharmacol 51, 173-182 (1996)). Spleen cells (4-5 week old male CD1 mouse, 20-22 gm, Charles River, Wilmington, Mass.) suspensions were prepared and plated in 96-well dishes at a density of 10^6 cells/ml in a final volume of 100 μl. The cells were incubated at 37° C. after adding 10 μl of oligonucleotides. After 44 hrs incubation, 1 μCi [3H]thymidine (Amersham, Arlington Heights, Ill.) was added and the cells were pulse-labeled for another 4 hrs. The cells were harvested by an automatic cell harvester and the filters were counted by a scintillation counter. All experiments were carried out in triplicate.

[3] = test system: citrated normal human donor plasma; assay: Clotting assay, activated partial thromboplastin time (aPTT); details: compared to saline control; for 50% Prolongation of Clotting (aPTT): human plasma; for effect in coagulation assay (in words): up to 100 μg/ml dose
Experimental: The activated partial thromboplastin time (aPTT) was performed with citrated normal human donor plasma in duplicate on an Electra 1000C (Medical Laboratory Automation, Mount Vernon, N.Y.) according to recommended procedures using Actin FSL (Baxter Dade, Miami, Fla.) and 2.5 mM calcium to initiate clot formation, which was measured photometrically. Normal plasma aPTT values ranged from 27 to 39 sec. Data were calculated as 50% of prolongation as compared to the saline control.

[4] = test system: normal human serum complement lysis of sheep red blood cells; assay: CH50 hemolytic complement assay; details: for 50% Inhibition of Complement Lysis: compared to saline control
Experimental: A CH50 assay for complement lysis of sheep red blood cells (Colorado Serum Co., Denver, Col.) sensitized with anti-sheep red cell antibody (hemolysin; Diamedix, Miami, Fla.) as previously described (Mayer, In Experimental Immunochemistry, Kabat and Mayer eds., C. C. Thomas, Springfield, pp. 125-131 (1961)), was modified to test 1-200 dilutions of normal human serum interpreted. Hemoglobin release into cell-free supernates was measured spectrophotometrically at 541 nm. Data were calculated as 50% inhibition of lysis compared to saline control.

[5] = Stability in DMEM cell culture medium containing 10% fetal calf serum; type: in vitro ADME; details: DMEM with 10% non-heat-inactivated fetal calf serum, 37° C.
Experimental: Oligonucleotides were labeled at the 5'-end with ^32 P using γ-^32 P-ATP (Amersham) and T4 polynucleotide kinase (Promega). Sambrook et al, Molecular Cloning, supra. Stability of the oligonucleotides in cell culture medium containing 10% fetal calf serum was tested by incubating a small amount of labeled oligonucleotide together with 100 ng of cold oligonucleotide in DMEM cell culture medium (Gibco/BRL, Grand Island, N.Y.) containing 10% non-heat-inactivated fetal calf serum (Gibco/BRL) at 37° C. in a final volume of 40 μl, and aliquots were removed at different times.

[6] = test system: snake venom phosphodiesterase; assay: Snake venom phosphodiesterase assay; type: in vitro ADME; details: 0.01 U, 21° C.; compared with SEQ ID NO 7
Experimental: (§2) For snake venom phosphodiesterase assay, labeled oligonucleotide with cold oligonucleotide in a buffer (10 mM Tris, pH 8.0, 100 mM sodium chloride, and 10 mM magnesium chloride) was incubated with 0.01 U of snake venom phosphodiesterase (Boehringer-Mannheim, Indianapolis, Ind.) at 21° C. (final volume 40 μl). Aliquots were removed at different time intervals for electrophoretic gel analysis. For S1 nuclease assay, reactions were carried out as above but in […] sodium acetate, pH 5.0, 10 mM zinc acetate buffer and with 1.4 U of S1 nuclease (Gibco/BRL) incubated at 37° C. in a final volume of 50 μl. Aliquots were removed at different time intervals for electrophoretic gel analysis. Nuclease reactions were stopped by adding 5 μl of formamide gel loading buffer to each sample and heating at 90° C. for 5 min. All the samples were then run by 20% PAGE (7M urea) and visualized by autoradiography.

S1 nuclease = molecular target: T1, S1 nuclease (Aspergillus oryzae, UniProt P24021); assay: S1 nuclease assay; type: in vitro ADME; details: 1.4 U, 37° C., pH 5.0
T1 construct: purchased Gibco/BRL
T1 sequence (P24021 21-287): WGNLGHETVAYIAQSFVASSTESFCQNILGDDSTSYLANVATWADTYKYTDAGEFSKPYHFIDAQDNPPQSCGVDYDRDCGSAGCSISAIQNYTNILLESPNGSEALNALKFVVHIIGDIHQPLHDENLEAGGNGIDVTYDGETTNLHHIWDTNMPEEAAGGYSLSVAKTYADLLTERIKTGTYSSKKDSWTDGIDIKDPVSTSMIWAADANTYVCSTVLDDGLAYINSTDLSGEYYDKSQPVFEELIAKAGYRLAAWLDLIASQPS
Experimental: as §2

In the case of “SEQ ID NO 2: MBO with three 2'-5'-linkages at each end; 2'-5'-phosphodiester and 3'-5'-phosphorothioate linkages (antisense CUCTCGCACCCATCTCTCTCCUUCT; linkages [25]3 s18 [25]3 (s phosphorothioate, o phosphodiester), sugars by position and methylation of C not given here)”, the “Tm DNA” value [1] is reported as 52.5 °C, the “Tm RNA” value [2] is reported as 63.3 °C and the IC50 (HIV-1) is reported as 99.9 nM. For the same substance, the “concentration required to achieve IC50 relative to control SEQ ID NO 8” value (HIV-1; HIV-1 replication) was “four fold higher concentration”, the “Stimulation Index (Lymphocyte Proliferation)” value (from here on “Stimulation Index”) (Spleen cells (CD1 mouse)) was 2.82 ± 0.37 and the “50% Prolongation of Clotting (aPTT)” value [3] was 51.1 µg/mL. For the same substance, the “50% Inhibition of Complement Lysis” value [4] was 59.1 µg/mL.
In the case of “SEQ ID NO 3: Phosphorothioate analog of SEQ ID NO 1 (antisense CUCTCGCACCCATCTCTCTCCUUCT; phosphorothioate, chemistry not fully specified)”, the “Tm DNA” value [1] is reported as 51.9 °C, the “Tm lower than duplex of control phosphorothioate oligonucleotide SEQ ID NO 8, DNA target” value [1] is reported as “about 4.70 °C” and the “Tm RNA” value [2] is reported as 61.1 °C. The “Tm lower than duplex of control phosphorothioate oligonucleotide SEQ ID NO 8, RNA target” value [2] was ~2.4 °C, the IC50 (HIV-1) was 29.8 nM and the “Stimulation Index” value (Spleen cells (CD1 mouse)) was 4.9. The “Stimulation Index” value (Spleen cells (CD1 mouse); listed as 3) was 4.93 ± 0.15, the “50% Prolongation of Clotting (aPTT)” value [3] was 58.0 µg/mL and the “50% Inhibition of Complement Lysis” value [4] was 95.2 µg/mL.
In the case of “SEQ ID NO 4: Phosphodiester MBO with three 2'-5' linkages at each end and an additional three in the middle (antisense CUCTCGCACCCAUCTCTCTCCUUCT; phosphodiester, three 2'-5' linkages at each end and three in middle, further chemistry not given here)”, the “ΔTm with the DNA strand” value ([1]; destabilizing effect, DNA strand) is reported as -10.7 °C, the “Tm DNA” value [1] is reported as 52.8 °C and the “ΔTm with the RNA strand” value ([2]; destabilizing effect, RNA strand) is reported as -6.0 °C. The “Tm RNA” value [2] was 64.5 °C, the “50% Prolongation of Clotting (aPTT)” value [3] was > 100.0 µg/mL and the “effect in coagulation assay (in words)” value [3] was “negligible effect”. For the same substance, the “stability in serum (in words)” value [5] was “intact up to four hours”, the “stability against snake venom phosphodiesterase (in words)” value [6] was “slightly higher stability” and the “digestion by S1 nuclease (in words)” value (S1 nuclease) was “quickly digested”.
With “SEQ ID NO 5: MBO with nine 2'-5'-linkages; 2'-5'-phosphodiester and 3'-5'-phosphorothioate linkages (antisense CUCTCGCACCCAUCTCTCTCCUUCT; nine 2'-5' phosphodiester linkages, other linkages 3'-5' phosphorothioate, further chemistry not given here)” the “Tm DNA” value [1] was 43.2 °C, the “Tm RNA” value [2] was 61.2 °C and the IC50 (HIV-1) was > 800 nM. For the same substance, the IC50 (HIV-1; listed as 5) was 812 nM, the “Stimulation Index” value (Spleen cells (CD1 mouse)) was 1.09 ± 0.05 and the “50% Prolongation of Clotting (aPTT)” value [3] was 115.0 µg/mL.
With “SEQ ID NO 6: Phosphorothioate analog of SEQ ID NO 4, with nine 2'-5' linkages (antisense CUCTCGCACCCAUCTCTCTCCUUCT; all linkages phosphorothioate, nine 2'-5' linkages, further chemistry not given here)” the “Tm DNA” value [1] was 39.4 °C, the “Tm lower than duplex of control phosphorothioate oligonucleotide SEQ ID NO 8, DNA target” value [1] was 17.2 °C and the “Tm RNA” value [2] was 56.4 °C. The “Tm lower than duplex of control phosphorothioate oligonucleotide SEQ ID NO 8, RNA target” value [2] was 7.1 °C, the “Stimulation Index” value (Spleen cells (CD1 mouse)) was 0.23 and the “Stimulation Index” value (Spleen cells (CD1 mouse); listed as 6) was 0.23 ± 0.04. For the same substance, the “50% Prolongation of Clotting (aPTT)” value [3] was 98.3 µg/mL and the “50% Inhibition of Complement Lysis” value [4] was > 500.0 µg/mL.
With “SEQ ID NO 7: Control phosphodiester oligonucleotide containing all 3'-5' linkages (CTCTCGCACCCATCTCTCTCCTTCT; all phosphodiester, sugars by position and methylation of C not given here) [reference compound]” the “Tm DNA” value [1] was 63.5 °C, the “Tm RNA” value [2] was 70.5 °C and the “Stimulation Index” value (Spleen cells (CD1 mouse)) was 1.10 ± 0.13. For the same substance, the “50% Prolongation of Clotting (aPTT)” value [3] was > 100.0 µg/mL, the “effect in coagulation assay (in words)” value [3] was “negligible effect” and the “50% Inhibition of Complement Lysis” value [4] was > 500.0 µg/mL. The half-life in serum [5] was < 30 min and the “digestion by S1 nuclease (in words)” value (S1 nuclease) was “quickly digested”.
In the case of “SEQ ID NO 8: Control phosphorothioate oligonucleotide containing all 3'-5' linkages (CTCTCGCACCCATCTCTCTCCTTCT; all phosphorothioate, sugars by position and methylation of C not given here) [reference compound]”, the “Tm DNA” value [1] is reported as 56.6 °C, the “Tm RNA” value [2] is reported as 63.5 °C and the IC50 (HIV-1) is reported as 24.9 nM. For the same substance, the “Stimulation Index” value (Spleen cells (CD1 mouse)) was 6.16, the “Stimulation Index” value (Spleen cells (CD1 mouse); listed as 8) was 6.16 ± 0.12 and the “50% Prolongation of Clotting (aPTT)” value [3] was “about 23 μg/ml”. For the same substance, the “50% Prolongation of Clotting (aPTT)” value ([3]; listed as 8) was 23.2 µg/mL, the “effect on complement hemolytic activity (in words)” value [4] was “inhibited serum complement hemolytic activity” and the “50% Inhibition of Complement Lysis” value [4] was 34.2 µg/mL.
